Source: US12391733B2, “Stapled intracellular-targeting antimicrobial peptides to treat infection” (priority 2016, dated 2025)
Positions of bridges follow the written chain, without caps; N, C: chain ends. Non-standard residues stand in square brackets, D forms with d. Residues, ends and D or L forms follow the SMILES beside them. R8 = C=CCCCCCC[C@@](C)(N)C(=O)O; S5 = C=CCCC[C@](C)(N)C(=O)O

Experiments:
[1] = tested on: human red blood cells (RBCs); type: cell-based; details: red cells of human, 1 h, 50
Description: One of the key obstacles that have long impeded the use of AMPs in systemic infections such as sepsis is their tendency to lyse human cells, such as red blood cells (RBCs). Thus, it is critical to minimize hemolytic activity as much as possible to achieve a therapeutic window. […] Of note, in those circumstances where hydrocarbon staples increase hemolytic activity due to increasing hydrophobicity, the alkene moiety can be modified, e.g., by dihydroxylation, to install hydrophilic residues and potentially mitigate hemolysis.
Hemolytic Activity Assay For the determination of hemolytic activity, the following protocol was applied: human blood samples were centrifuged to isolate red blood cells (RBCs), which were then washed and suspended in phosphate-buffered saline to yield a 1% (v/v) suspension. This suspension was then added to serial dilutions of peptide stocks in water in clear round-bottom polypropylene 96-well plates and the plates incubated for 1 hour at 37° C. After incubation, the plates were centrifuged and the supernatant isolated to determine the amount of hemoglobin released using a spectrophotometer (570 nm). The minimum hemolytic concentration (MHC) was determined by assessing the peptide concentration at which there was less than 1% hemoglobin release.

circular dichroism = details: 10 mM phosphate buffer; pH 7.4; ns °C; 100 uM
E. coli = type: cell-based, Escherichia coli; details: Table 1; microbroth dilution, refined MHB, 20-24 hours at 37° C.
Procedure: Antimicrobial Activity Assay The following microbroth dilution protocol was adapted to determine the MIC of each peptide. First, Mueller-Hinton broth (MHB) was passed through an anion exchange column to remove polyanionic species and generate refined MHB. This refined broth was then used in the standard microbroth dilution protocol devised by Hancock et al. for 96 well plates. […] Briefly, bacterial cells were grown overnight in refined MHB at 37° C. and then diluted and allowed to grow again for several hours. Serial dilutions of peptide stocks in water (10 μl) were prepared using clear round-bottom polypropylene 96-well plates. Then 90 μl of bacteria in refined MHB was added to give a final inoculum of 5×10^5 CFU/ml. The plates were then covered with porous tape to reduce evaporation, and incubated for 20-24 hours at 37° C.

| SMILES | % Hemolysis at 50 μg/ml [1] | helicity (circular dichroism) | Antimicrobial Activity NIC (μg/ml) E. coli (E. coli) |
| --- | --- | --- | --- |
| CC(C)C[C@H](NC(=O)CNC(=O)[C@H](C)NC(=O)[C@H](CCCNC(=N)N)NC(=O)[C@H](CO)NC(=O)[C@H](CO)NC(=O)[C@H](CCCNC(=N)N)NC(=O)[C@@H](N)[C@@H](C)O)C(=O)N[C@@H](CCC(N)=O)C(=O)N[C@@H](Cc1c[nH]c2ccccc12)C(=O)N1CCC[C@H]1C(=O)N[C@@]1(C)CCCC=CCCC[C@@](C)(C(=O)N[C@@H](CCCNC(=N)N)C(=O)N[C@@H](CC(C)C)C(=O)N[C@@H](CC(C)C)C(=O)N[C@@H](CCCNC(=N)N)C(=O)N[C@@H](CCCCN)C(N)=O)NC(=O)[C@H](C(C)C)NC(=O)[C@H](CCCNC(=N)N)NC(=O)CNC1=O [BFStap(i + 4)6] (H-TRSSRAGLQWP[S5]GRV[S5]RLLRK-NH2; staple 12-16) | 10.0% |  |  |
| CC(C)C[C@H](NC(=O)CNC(=O)[C@H](C)NC(=O)[C@H](CCCNC(=N)N)NC(=O)[C@H](CO)NC(=O)[C@H](CO)NC(=O)[C@H](CCCNC(=N)N)NC(=O)[C@@H](N)[C@@H](C)O)C(=O)N[C@@H](CCC(N)=O)C(=O)N[C@@H](Cc1c[nH]c2ccccc12)C(=O)N1CCC[C@H]1C(=O)N[C@H](C(=O)NCC(=O)N[C@]1(C)CCCCCCC=CCCC[C@@](C)(C(N)=O)NC(=O)[C@H](CCCNC(=N)N)NC(=O)[C@H](CC(C)C)NC(=O)[C@H](CC(C)C)NC(=O)[C@H](CCCNC(=N)N)NC(=O)[C@H](Cc2c[nH]cn2)NC(=O)[C@H](C(C)C)NC1=O)C(C)C [BFStap(i + 7)1] (H-TRSSRAGLQWPVG[R8]VHRLLR[S5]-NH2; staple 14-21; N-terminus and C-terminus assumed) | 16.6% | 16.9% | 10.4 µg/mL |
| CC(C)C[C@H](NC(=O)[C@H](CC(C)C)NC(=O)[C@H](CCCNC(=N)N)NC(=O)[C@H](Cc1c[nH]cn1)NC(=O)[C@@H](NC(=O)[C@H](CCCNC(=N)N)NC(=O)CNC(=O)[C@@H](NC(=O)[C@@H]1CCCN1C(=O)[C@H](Cc1c[nH]c2ccccc12)NC(=O)[C@H](CCC(N)=O)NC(=O)[C@]1(C)CCCC=CCCCCCC[C@@](C)(N)C(=O)N[C@@H](CCCNC(=N)N)C(=O)N[C@@H](CO)C(=O)N[C@@H](CO)C(=O)N[C@@H](CCCNC(=N)N)C(=O)N[C@@H](C)C(=O)NCC(=O)N1)C(C)C)C(C)C)C(=O)N[C@@H](CCCNC(=N)N)C(=O)N[C@@H](CCCCN)C(N)=O [BFStap(i + 7)10] (H-[R8]RSSRAG[S5]QWPVGRVHRLLRK-NH2; staple 1-8) | 2.3% | 0% | >100 µg/mL |
| CC(C)C[C@H](NC(=O)CNC(=O)[C@H](C)NC(=O)[C@H](CCCNC(=N)N)NC(=O)[C@H](CO)NC(=O)[C@H](CO)NC(=O)[C@H](CCCNC(=N)N)NC(=O)[C@@H](N)[C@@H](C)O)C(=O)N[C@@H](CCC(N)=O)C(=O)N[C@@H](Cc1c[nH]c2ccccc12)C(=O)N1CCC[C@H]1C(=O)N[C@H](C(=O)NCC(=O)N[C@@H](CCCNC(=N)N)C(=O)N[C@H](C(=O)N[C@@H](Cc1cnc[nH]1)C(=O)N[C@@H](CCCNC(=N)N)C(=O)N[C@@H](CC(C)C)C(=O)N[C@@H](CC(C)C)C(=O)N[C@@H](CCCNC(=N)N)C(=O)N[C@@H](CCCCN)C(=O)O)C(C)C)C(C)C [Buforin II(F10W), reference compound] | 2.7% |  | >800 µg/mL |
| CC(C)C[C@H](NC(=O)[C@H](CC(C)C)NC(=O)[C@H](CCCNC(=N)N)NC(=O)[C@H](Cc1c[nH]cn1)NC(=O)[C@]1(C)CCCC=CCCCCCC[C@@](C)(NC(=O)CNC(=O)[C@H](C)NC(=O)[C@H](CCCNC(=N)N)NC(=O)[C@H](CO)NC(=O)[C@H](CO)NC(=O)[C@H](CCCNC(=N)N)NC(=O)[C@@H](N)[C@@H](C)O)C(=O)N[C@@H](CCC(N)=O)C(=O)N[C@@H](Cc2c[nH]c3ccccc23)C(=O)N2CCC[C@H]2C(=O)N[C@@H](C(C)C)C(=O)NCC(=O)N[C@@H](CCCNC(=N)N)C(=O)N1)C(=O)N[C@@H](CCCNC(=N)N)C(=O)N[C@@H](CCCCN)C(N)=O [BFStap(i + 7)5] (H-TRSSRAG[R8]QWPVGR[S5]HRLLRK-NH2; staple 8-15; N-terminus and C-terminus assumed) | 6.8% |  | 52.1 µg/mL |
| CC(C)C[C@H](NC(=O)CNC(=O)[C@H](C)NC(=O)[C@H](CCCNC(=N)N)NC(=O)[C@H](CO)NC(=O)[C@H](CO)NC(=O)[C@H](CCCNC(=N)N)NC(=O)[C@@H](N)[C@@H](C)O)C(=O)N[C@@H](CCC(N)=O)C(=O)N[C@@H](Cc1c[nH]c2ccccc12)C(=O)N1CCC[C@H]1C(=O)N[C@]1(C)CCCCCCC=CCCC[C@@](C)(C(=O)N[C@@H](CCCNC(=N)N)C(=O)N[C@@H](CCCCN)C(N)=O)NC(=O)[C@H](CC(C)C)NC(=O)[C@H](CCCNC(=N)N)NC(=O)[C@H](Cc2c[nH]cn2)NC(=O)[C@H](C(C)C)NC(=O)[C@H](CCCNC(=N)N)NC(=O)CNC1=O [BFStap(i + 7)3] (H-TRSSRAGLQWP[R8]GRVHRL[S5]RK-NH2; staple 12-19; N-terminus and C-terminus assumed) | 6.1% |  | 29.2 µg/mL |
| CC(C)C[C@H](NC(=O)CNC(=O)[C@H](C)NC(=O)[C@H](CCCNC(=N)N)NC(=O)[C@H](CO)NC(=O)[C@H](CO)NC(=O)[C@H](CCCNC(=N)N)NC(=O)[C@@H](N)[C@@H](C)O)C(=O)N[C@@H](CCC(N)=O)C(=O)N[C@@H](Cc1c[nH]c2ccccc12)C(=O)N1CCC[C@H]1C(=O)N[C@H](C(=O)NCC(=O)N[C@@H](CCCNC(=N)N)C(=O)N[C@H](C(=O)N[C@@]1(C)CCCC=CCCC[C@@](C)(C(=O)N[C@@H](CCCCN)C(N)=O)NC(=O)[C@H](CC(C)C)NC(=O)[C@H](CC(C)C)NC(=O)[C@H](CCCNC(=N)N)NC1=O)C(C)C)C(C)C [BFStap(i + 4)2] (H-TRSSRAGLQWPVGRV[S5]RLL[S5]K-NH2; staple 16-20) | 12.6% | 3.2% |  |
| CC(C)C[C@H](NC(=O)CNC(=O)[C@H](C)NC(=O)[C@H](CCCNC(=N)N)NC(=O)[C@H](CO)NC(=O)[C@H](CO)NC(=O)[C@H](CCCNC(=N)N)NC(=O)[C@@H](N)[C@@H](C)O)C(=O)N[C@@H](CCC(N)=O)C(=O)N[C@@H](Cc1c[nH]c2ccccc12)C(=O)N1CCC[C@H]1C(=O)N[C@H](C(=O)NCC(=O)N[C@@H](CCCNC(=N)N)C(=O)N[C@H](C(=O)N[C@@H](Cc1c[nH]cn1)C(=O)N[C@@]1(C)CCCC=CCCC[C@@](C)(C(N)=O)NC(=O)[C@H](CCCNC(=N)N)NC(=O)[C@H](CC(C)C)NC(=O)[C@H](CC(C)C)NC1=O)C(C)C)C(C)C [BFStap(i + 4)1] (H-TRSSRAGLQWPVGRVH[S5]LLR[S5]-NH2; staple 17-21; N-terminus and C-terminus assumed) | 2.2% |  | 50.0 µg/mL |
| CC(C)C[C@H](NC(=O)CNC(=O)[C@H](C)NC(=O)[C@H](CCCNC(=N)N)NC(=O)[C@H](CO)NC(=O)[C@H](CO)NC(=O)[C@H](CCCNC(=N)N)NC(=O)[C@@H](N)[C@@H](C)O)C(=O)N[C@@H](CCC(N)=O)C(=O)N[C@@H](Cc1c[nH]c2ccccc12)C(=O)N1CCC[C@H]1C(=O)N[C@H](C(=O)NCC(=O)N[C@@H](CCCNC(=N)N)C(=O)N[C@H](C(=O)N[C@@H](Cc1c[nH]cn1)C(=O)N[C@@H](CCCNC(=N)N)C(=O)N[C@@H](CC(C)C)C(=O)N[C@@H](CC(C)C)C(=O)N[C@@H](CCCNC(=N)N)C(=O)N[C@@H](CCCCN)C(N)=O)C(C)C)C(C)C |  | 0% |  |
| CC(C)C[C@@H]1NC(=O)CNC(=O)[C@H](C)NC(=O)[C@](C)(NC(=O)[C@H](CO)NC(=O)[C@H](CO)NC(=O)[C@H](CCCNC(=N)N)NC(=O)[C@@H](N)[C@@H](C)O)CCCCCCC=CCCC[C@@](C)(C(=O)NCC(=O)N[C@@H](CCCNC(=N)N)C(=O)N[C@H](C(=O)N[C@@H](Cc2c[nH]cn2)C(=O)N[C@@H](CCCNC(=N)N)C(=O)N[C@@H](CC(C)C)C(=O)N[C@@H](CC(C)C)C(=O)N[C@@H](CCCNC(=N)N)C(=O)N[C@@H](CCCCN)C(N)=O)C(C)C)NC(=O)[C@@H]2CCCN2C(=O)[C@H](Cc2c[nH]c3ccccc23)NC(=O)[C@H](CCC(N)=O)NC1=O [BFStap(i + 7)8] (H-TRSS[R8]AGLQWP[S5]GRVHRLLRK-NH2; staple 5-12) | 3.9% | 0% |  |
